Measurements published in PubChem BioAssay (NCI).
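Interpolation was linear, between the two tested concentrations surrounding the appropriate level; five concentrations were tested over 48 hours in 96-well plates. At the TGI there is no net growth.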

What was measured:
Test in all cases: NCI tumour cell line growth inhibition, 48 h
[1] = system: EKVX NSCLC
[2] = system: A498 renal
[3] = system: OVCAR-4 ovarian
[4] = system: ACHN renal
[5] = system: SK-MEL-28 melanoma
[6] = system: CCRF-CEM leukemia
[7] = system: SF-268 CNS
[8] = system: T-47D breast
[9] = system: PC-3 prostate
[10] = system: SK-MEL-2 melanoma
[11] = system: MCF7 breast
[12] = system: KM12 colon
[13] = system: SW-620 colon
[14] = system: UACC-62 melanoma
[15] = system: RPMI-8226 leukemia
[16] = system: OVCAR-8 ovarian
[17] = system: DU-145 prostate
[18] = system: HOP-62 NSCLC
[19] = system: HOP-92 NSCLC
[20] = system: SN12C renal
[21] = system: MOLT-4 leukemia
[22] = system: UO-31 renal
[23] = system: MDA-MB-435
[24] = system: SK-OV-3 ovarian
[25] = system: HT29 colon
[26] = system: A549 NSCLC
[27] = system: RXF 393 renal
[28] = system: NCI-H460 lung
[29] = system: SNB-75 CNS
[30] = system: NCI-H226 lung
[31] = system: HCC-2998 colon
[32] = system: HL-60(TB) leukemia
[33] = system: OVCAR-5 ovarian
[34] = system: MDA-N
[35] = system: SNB-19 CNS
[36] = system: HCT-15 colon
[37] = system: SR leukemia
[38] = system: UACC-257 melanoma
[39] = system: MDA-MB-231 breast
[40] = system: SF-295 CNS
[41] = system: K-562 leukemia
[42] = system: IGROV1 ovarian
[43] = system: CAKI-1 renal
[44] = system: HCT-116 colon
[45] = system: LOX IMVI melanoma
[46] = system: OVCAR-3 ovarian
[47] = system: U251 CNS
[48] = system: 786-0 renal
[49] = system: COLO 205 colon
[50] = system: HS 578T breast
[51] = system: NCI-H23 lung
[52] = system: NCI/ADR-RES ovarian
[53] = system: BT-549 breast
[54] = system: SF-539 CNS
[55] = system: TK-10 renal
[56] = system: M14 melanoma
[57] = system: SK-MEL-5 melanoma
[58] = system: MALME-3M melanoma

NC(N)=NCCCC(NC(=O)OCCCCCn1ccc(N)nc1=O)C(=O)O (configuration not stated) gave a TGI [1] of over 100 µM, a TGI [2] of over 100 µM and a TGI [3] of over 100 µM. For the same molecule, the TGI [4] was over 100 µM, the TGI [5] was over 100 µM and the TGI [6] was over 100 µM. For the same molecule, the TGI [7] was over 100 µM, the TGI [8] was over 100 µM and the TGI [9] was over 100 µM. It also gave a TGI [10] of over 100 µM, a TGI [11] of over 100 µM and a TGI [12] of over 100 µM. The TGI [13] was over 100 µM, the TGI [14] was over 100 µM and the TGI [15] was over 100 µM. For the same molecule, the TGI [16] was over 100 µM, the TGI [17] was over 100 µM and the TGI [18] was over 100 µM. For the same molecule, the TGI [19] was over 100 µM, the TGI [20] was over 100 µM and the TGI [21] was over 100 µM. It also gave a TGI [22] of over 100 µM, a TGI [23] of over 100 µM and a TGI [24] of over 100 µM. For the same molecule, the TGI [25] was over 100 µM, the TGI [26] was over 100 µM and the TGI [27] was over 100 µM. It also gave a TGI [28] of over 100 µM, a TGI [29] of over 100 µM and a TGI [30] of over 100 µM. For the same molecule, the TGI [31] was over 100 µM, the TGI [32] was over 100 µM and the TGI [33] was over 100 µM. It also gave a TGI [34] of over 100 µM, a TGI [35] of over 100 µM and a TGI [36] of over 100 µM. For the same molecule, the TGI [37] was over 100 µM, the TGI [38] was over 100 µM and the TGI [39] was over 100 µM. The TGI [40] was over 100 µM, the TGI [41] was over 100 µM and the TGI [42] was over 100 µM. For the same molecule, the TGI [43] was over 100 µM, the TGI [44] was over 100 µM and the TGI [45] was over 100 µM. The TGI [46] was over 100 µM, the TGI [47] was over 100 µM and the TGI [48] was over 100 µM. The TGI [49] was over 100 µM, the TGI [50] was over 100 µM and the TGI [51] was over 100 µM. For the same molecule, the TGI [52] was over 100 µM, the TGI [53] was over 100 µM and the TGI [54] was over 100 µM. The TGI [55] was over 100 µM and the TGI [56] was over 100 µM.
With CCOC(=O)N1CCC2(CC1)CC(=O)N(Nc1ccccc1)C2=O the TGI [1] was over 100 µM, the TGI [2] was over 100 µM and the TGI [3] was over 100 µM. For the same molecule, the TGI [4] was over 100 µM, the TGI [5] was over 100 µM and the TGI [6] was over 100 µM. The TGI [7] was over 100 µM, the TGI [8] was over 100 µM and the TGI [9] was over 100 µM. The TGI [10] was over 100 µM, the TGI [11] was over 100 µM and the TGI [12] was over 100 µM. For the same molecule, the TGI [13] was over 100 µM, the TGI [14] was over 100 µM and the TGI [15] was over 100 µM. It also gave a TGI [16] of over 100 µM, a TGI [17] of over 100 µM and a TGI [18] of over 100 µM. It also gave a TGI [19] of over 100 µM, a TGI [20] of over 100 µM and a TGI [21] of over 100 µM. The TGI [22] was over 100 µM, the TGI [23] was over 100 µM and the TGI [24] was over 100 µM. It also gave a TGI [25] of over 100 µM, a TGI [26] of over 100 µM and a TGI [27] of over 100 µM. It also gave a TGI [28] of over 100 µM, a TGI [29] of over 100 µM and a TGI [30] of over 100 µM. It also gave a TGI [31] of over 100 µM, a TGI [32] of over 100 µM and a TGI [33] of over 100 µM. For the same molecule, the TGI [34] was over 100 µM, the TGI [35] was over 100 µM and the TGI [36] was over 100 µM. It also gave a TGI [37] of over 100 µM, a TGI [38] of over 100 µM and a TGI [39] of over 100 µM. For the same molecule, the TGI [40] was over 100 µM, the TGI [41] was over 100 µM and the TGI [42] was over 100 µM. For the same molecule, the TGI [43] was over 100 µM, the TGI [44] was over 100 µM and the TGI [45] was over 100 µM. It also gave a TGI [46] of over 100 µM, a TGI [47] of over 100 µM and a TGI [48] of over 100 µM. For the same molecule, the TGI [49] was over 100 µM, the TGI [50] was over 100 µM and the TGI [51] was over 100 µM. It also gave a TGI [52] of over 100 µM, a TGI [53] of over 100 µM and a TGI [54] of over 100 µM. It also gave a TGI [57] of over 100 µM, a TGI [58] of over 100 µM and a TGI [55] of over 100 µM. It also gave a TGI [56] of over 100 µM.
Cc1ccc(NN=NCCCCN=NNc2ccc(C)cc2)cc1 was tested, and the TGI [1] was over 100 µM, the TGI [2] was over 100 µM and the TGI [3] was over 100 µM. It also gave a TGI [5] of over 100 µM, a TGI [6] of 98.4 µM and a TGI [7] of over 100 µM. It also gave a TGI [8] of over 100 µM, a TGI [9] of over 100 µM and a TGI [10] of over 100 µM. The TGI [11] was over 100 µM, the TGI [13] was over 100 µM and the TGI [14] was over 100 µM. It also gave a TGI [16] of over 100 µM, a TGI [17] of over 100 µM and a TGI [18] of over 100 µM. For the same molecule, the TGI [19] was over 100 µM, the TGI [20] was over 100 µM and the TGI [21] was over 100 µM. For the same molecule, the TGI [22] was 2.1 µM, the TGI [23] was over 100 µM and the TGI [24] was over 100 µM. It also gave a TGI [25] of over 100 µM, a TGI [26] of over 100 µM and a TGI [27] of over 100 µM. For the same molecule, the TGI [28] was over 100 µM, the TGI [29] was over 100 µM and the TGI [30] was over 100 µM. For the same molecule, the TGI [31] was over 100 µM, the TGI [32] was 30.3 µM and the TGI [33] was over 100 µM. The TGI [34] was over 100 µM, the TGI [36] was over 100 µM and the TGI [37] was over 100 µM. For the same molecule, the TGI [38] was over 100 µM, the TGI [39] was over 100 µM and the TGI [40] was over 100 µM. For the same molecule, the TGI [41] was over 100 µM, the TGI [42] was over 100 µM and the TGI [43] was over 100 µM. For the same molecule, the TGI [44] was over 100 µM, the TGI [45] was over 100 µM and the TGI [46] was over 100 µM. For the same molecule, the TGI [47] was over 100 µM, the TGI [49] was over 100 µM and the TGI [50] was over 100 µM. For the same molecule, the TGI [51] was 81.2 µM, the TGI [52] was over 100 µM and the TGI [53] was over 100 µM. The TGI [54] was over 100 µM, the TGI [57] was over 100 µM and the TGI [58] was over 100 µM. It also gave a TGI [55] of 17.9 µM and a TGI [56] of over 100 µM.
